Laboratory results reported in patent US20240425857A1, “Means and Methods for Chronic Wound Healing” (VIB VZW, priority 2021, published 2024).
Entries after “also recorded” stand apart in the source; their conditions may differ.

Legend:
dendritic cells (BMDC) = assay: Efferocytosis assay: dendritic cells incubated with apoptotic Jurkat cells (flow cytometry or Incucyte live-cell imaging); assay type: cell-based, mouse; conditions: apoptotic Jurkat targets; for erastin-dependent increase in efferocytosis by dendritic cells: inhibitor given together with 5 μM erastin; for efferocytosis (apoptotic cell uptake) by dendritic cells: 1:5 phagocyte:target ratio, cells pretreated 1 hour with the substance
Experimental: (§1) Efferocytosis assays. For induction of apoptosis, human Jurkat T cells were with stained with CypHerSE (#PA15401, GE Healthcare) or TAMRA (#C-1171, Invitrogen) or pHrodo™ Green STP Ester (#P35369, ThermoFisher), resuspended in RPMI with 5% fetal calf serum, treated with 150 mJ/cm^2 ultraviolet C irradiation (Stratalinker) and incubated for 4 h at 37° C. with 5% CO2. Dendritic cells were incubated with apoptotic targets at a 1:5 phagocyte: target ratio for the indicated times. Phagocytosis was assessed by a flow cytometry-based assay^21 or by Incucyte Live-cell imaging. As alternative targets for phagocytosis, dendritic cells were incubated with pHrodo™ Green E. coli BioParticles™ (#P35366, ThermoFisher) or Streptavidin Fluoresbrite® YG Microspheres, 2.0 μm (for simplicity, beads) at a 1:5 phagocyte: target ratio for the indicated times. When applicable, cells were pretreated for 1 hour with 5 μM erastin (#S7242, Bio-Connect B.V), 200 μM CP-91149 (#S2717, Bio-Connect B.V.), 0.2 mM 2-DG (2-Deoxy-D-glucose; #D8375-1G, Sigma), 5 μM UK5099 (#PZ0160, Sigma), 40 μM DON (6-Diazo-5-oxo-L-norleucine; #D2141-5 MG, Sigma), 10 μM 3-BP (3-Bromo-2-oxopropionic acid, #376817-M, Sigma), 10 mM Glutamate (#6106 Apr. 3, Sigma) before addition of targets.

dendritic cells [1] = assay: Determination of glycogen concentration in dendritic cells; assay type: cell-based, mouse; conditions: CP-91149 added to erastin-treated BMDC
Experimental: Determination of glycogen concentration. The glycogen concentration was measured using a Glycogen Colorimetric/Fluorometric Assay Kit (#GENT-K646-10, BioVision) according to the manufacturer's instructions.

db/db mice = assay: Full-thickness skin wounding, wound healing in diabetic db/db mice; assay type: in vivo, mouse; conditions: no apoptotic cell co-administration
Text: (§2) Skin wounding and erastin regimen. Full-thickness wounds were made as previously described^65.56 Briefly, wounds were made on shaved back skin by using 8-mm punch biopsy needles (Stiefel Instruments) under analgesia and general anesthesia in 8-week-old female C57BL/6J, B6.BKS (D)-Leprdb/J (db/db), GDF15KO, Slc7a11KO and control littermates. For wound healing experiments, assuming standard deviations of 10-15%, an experimental group of n=10 is needed to obtain statistical power of 90% (significance level 0.05) and detect a difference between means of 20%, using two-tailed paired T-testing. No animals were excluded from any experiment.
(§3) For topical applications, mice were intradermally injected with Imidazole ketone erastin (IKE at 20 mg kg^−1 in 100 μl PBS; MedChemExpress, #HY-114481) or recombinant human GDF-15 (0.7 mg kg^−1 in 100 μl PBS; R&D Systems, #9279-GD-050) or RSL3 (20 mg kg-1 in 100 μl PBS; Sellechem, #S8155) or the respective vehicle controls (DMSO or 4 mM HCl in 100 μl PBS) at the time of wounding and for two consecutive days. For the experiments indicated as ‘erastin regimen’ or vehicle regimen, 5 million apoptotic Jurkat cells were administrated once on day 0 in 50 μl PBS on top of back skin immediately after full-thickness excision biopsy. For the mice injected intradermally with supernatants from efferocytic dendritic cells, supernatants from dendritic cells cultured with apoptotic Jurkat cells for 16 h were collected, centrifuged to eliminate debris and frozen or lyophilized for preservation.

C57BL/6J mice = assay: Full-thickness skin wounding (8-mm punch biopsy), wound healing in wild-type mice; assay type: in vivo, mouse
Text: as §2
as §3, with “For the mice injected intradermally with supernatants from efferocytic dendritic cells, supernatants from dendritic cells cultured with apoptotic Jurkat cells for 16 h were collected, centrifuged to eliminate debris and frozen or lyophilized for preservation.” left out

[2] = tested on: Slc7a11-deficient dendritic cells; assay: Efferocytosis by Slc7a11-deficient (Slc7a11 KO) dendritic cells; assay type: cell-based, mouse; conditions: Slc7a11 KO BMDC, apoptotic Jurkat targets
Experimental: as §1

dendritic cells [3] = assay type: cell-based, mouse
Text: FIG. 6D, Assessment of erastin drug cytotoxicity in dendritic cells by measuring Sytox Green fluorescence.
FIG. 9B, Assessment of cytotoxicity of drugs tested on dendritic cells by measuring Sytox Green fluorescence.

Molecule: O=CC[C@@H](O)[C@H](O)[C@H](O)CO [2-DG, 2-Deoxy-D-glucose]
- erastin-dependent increase in efferocytosis by dendritic cells (dendritic cells (BMDC)): abrogated the enhanced efferocytosis due to Slc7a11 inhibition

Molecule: O=C(O)C(=O)CBr [3-BP, 3-Bromo-2-oxopropionic acid]
- erastin-dependent increase in efferocytosis by dendritic cells (dendritic cells (BMDC)): dampened the enhanced inhibition due to erastin treatment

Molecule: CN(C)C(=O)[C@H](O)[C@H](Cc1ccccc1)NC(=O)c1cc2cc(Cl)ccc2[nH]1 [CP-91149]
- erastin-dependent increase in efferocytosis by dendritic cells (dendritic cells (BMDC)): strongly abrogated the erastin-dependent increase in efferocytosis
- glycogen levels in erastin-treated BMDC (dendritic cells [1]): reversed the glycogen levels in erastin-treated BMDC almost to DMSO control

Molecule: [N-]=[N+]=CC(=O)CC[C@H](N)C(=O)O [DON, 6-Diazo-5-oxo-L-norleucine]
- erastin-dependent increase in efferocytosis by dendritic cells (dendritic cells (BMDC)): marginally decreased the erastin-mediated augmented efferocytosis

Molecule: CC(C)Oc1ccc(C(=O)Cn2ccnc2)cc1-n1c(CN2CCN(C(=O)COc3ccc(Cl)cc3)CC2)nc2ccccc2c1=O [IKE, Imidazole ketone erastin]
- diabetic wound healing, substance alone (db/db mice): improves skin wound healing in diabetic mice
- wound healing, substance alone (C57BL/6J mice; full-thickness wound, no co-treatment): did not improve wound healing

Molecule: COc1ccc(N(C(=O)CCl)C(C(=O)NCCc2ccccc2)c2cccs2)cc1Cl (stereo not drawn) [ML-162]
- efferocytosis (apoptotic cell uptake) by dendritic cells (dendritic cells (BMDC)): did not enhance efferocytosis; also recorded: does not enhance efferocytosis by dendritic cells

Molecule: COC(=O)c1ccc([C@@H]2c3[nH]c4ccccc4c3C[C@@H](C(=O)OC)N2C(=O)CCl)cc1 [RSL3]
- wound healing, given with apoptotic cells at day 0 (C57BL/6J mice; apoptotic Jurkat cells once on day 0, drug from day 0 to day 2): did not improve wound healing

Molecule: N#C/C(=C\c1cn(-c2ccccc2)c2ccccc12)C(=O)O [UK5099]
- erastin-dependent increase in efferocytosis by dendritic cells (dendritic cells (BMDC)): had no impact on efferocytosis

Molecule: C=C1[C@@H](C)[C@H]2[C@H](Cc3ccccc3)NC(=O)[C@]23[C@H](OC(C)=O)/C=C/[C@@](C)(O)C(=O)[C@@H](C)C/C=C/[C@H]3[C@@H]1O [cytochalasin D]
- efferocytosis by Slc7a11-deficient dendritic cells [2]: abrogated

Molecule: CCOc1ccccc1-n1c(C(C)N2CCN(C(=O)COc3ccc(Cl)cc3)CC2)nc2ccccc2c1=O (stereo not drawn) [erastin]
- dendritic cell viability (dendritic cells [3]): did not affect dendritic cell viability

Molecule: N[C@@H](CCC(=O)O)C(=O)O [glutamate]
- efferocytosis (apoptotic cell uptake) by dendritic cells (dendritic cells (BMDC)): boosted efferocytosis

B1: rGDF15: recombinant human GDF-15 (R&D Systems), member of the TGF-β superfamily (protein, UniProt Q99988 195-308, looked up)
Growth/differentiation factor …: ARARNGDHCPLGPGRCCRLHTVRASLEDLGWADWVLSPREVQVTMCIGACPSQFRAANMHAQIKTSLHRLKPDTVPAPCCVPASYNPMVLIQKTDTGVSLQTYDDLLAKDCHCI
- diabetic wound healing, substance alone (db/db mice): significantly improved wound healing in the db/db mice
- diabetic wound healing, substance alone (db/db mice; listed as recombinant GDF15): boosts healing
